Test results published in PubChem BioAssay AID248 (DTP/NCI, 2004).
Where “and” joins values, the source holds several entries; their conditions need not be identical. Equal entries are not always repeated. Toxic doses and inconclusive results are not listed.

Tested on: L1210 leukemia ip in BDF1 mice, survival T/C
Experiment: NCI In Vivo Anticancer Drug Screen. Data for tumor model L1210 Leukemia (intraperitoneal) in B6D2F1 (BDF1) mice
Conditions: higher = longer survival
Procedure, shortened: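 Read-out is survival time, reported as the treated-group measurement over the vehicle-control measurement.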

In the case of `COc1ccc2[nH]c3c(C)c4ccncc4c(C)c3c2c1`, the T/C (endpoint: mean survival time, dose: 2.5 mg/kg/injection, schedule: Q01DX009 (ip), vehicle: Klucel (hydroxypropylcellulose) (HPC)) is reported as 93 % of control, the T/C (endpoint: mean survival time, dose: 3.12 mg/kg/injection, schedule: Q01DX009 (ip), vehicle: citric acid) is reported as 113 % of control and 124 % of control and the T/C (endpoint: mean survival time, dose: 3.12 mg/kg/injection, schedule: Q01DX009 (ip), vehicle: clinical formulation) is reported as 109 % of control and 121 % of control. For the same compound, the T/C (endpoint: mean survival time, dose: 3.12 mg/kg/injection, schedule: Q04DX003 (ip), vehicle: citric acid) was 106 % of control, the T/C (endpoint: mean survival time, dose: 3.12 mg/kg/injection, schedule: Q04DX003 (ip), vehicle: clinical formulation) was 104 % of control and the T/C (endpoint: mean survival time, dose: 5.0 mg/kg/injection, schedule: Q01DX009 (ip), vehicle: Klucel (hydroxypropylcellulose) (HPC)) was 106 % of control. For the same compound, the T/C (endpoint: mean survival time, dose: 6.0 mg/kg/injection, schedule: Q01DX Z (ip), vehicle: saline) was 112 % of control, the T/C (endpoint: mean survival time, dose: 6.25 mg/kg/injection, schedule: Q01DX009 (ip), vehicle: citric acid) was 122 % of control and the T/C (endpoint: mean survival time, dose: 6.25 mg/kg/injection, schedule: Q04DX003 (ip), vehicle: citric acid) was 109 % of control and 112 % of control. The T/C (endpoint: mean survival time, dose: 6.25 mg/kg/injection, schedule: Q04DX003 (ip), vehicle: clinical formulation) was 106 % of control and 108 % of control, the T/C (endpoint: mean survival time, dose: 9.37 mg/kg/injection, schedule: Q01DX001 (ip), vehicle: other) was 102 % of control and the T/C (endpoint: mean survival time, dose: 9.37 mg/kg/injection, schedule: Q01DX001 (sc), vehicle: other) was 98 % of control. For the same compound, the T/C (endpoint: mean survival time, dose: 9.37 mg/kg/injection, schedule: Q04DX003 (ip), vehicle: other) was 103 % of control, the T/C (endpoint: mean survival time, dose: 9.38 mg/kg/injection, schedule: Q04DX003 (ip), vehicle: clinical formulation) was 104 % of control and the T/C (endpoint: mean survival time, dose: 9.38 mg/kg/injection, schedule: Q04DX003 (ip), vehicle: lactic acid) was 121 % of control. For the same compound, the T/C (endpoint: mean survival time, dose: 10.0 mg/kg/injection, schedule: Q01DX009 (ip), vehicle: Klucel (hydroxypropylcellulose) (HPC)) was 109 % of control, the T/C (endpoint: mean survival time, dose: 12.0 mg/kg/injection, schedule: Q01DX001 (ip), vehicle: saline) was 106 % of control and the T/C (endpoint: mean survival time, dose: 12.0 mg/kg/injection, schedule: Q01DX Z (ip), vehicle: saline) was 109 % of control and 123 % of control. The T/C (endpoint: mean survival time, dose: 12.0 mg/kg/injection, schedule: Q01DX Z (oral), vehicle: saline) was 116 % of control, the T/C (endpoint: mean survival time, dose: 12.5 mg/kg/injection, schedule: Q01DX009 (ip), vehicle: citric acid) was 150 % of control and the T/C (endpoint: mean survival time, dose: 12.5 mg/kg/injection, schedule: Q04DX003 (ip), vehicle: citric acid) was 116 % of control. For the same compound, the T/C (endpoint: mean survival time, dose: 12.5 mg/kg/injection, schedule: Q04DX003 (ip), vehicle: clinical formulation) was 117 % of control and 120 % of control, the T/C (endpoint: mean survival time, dose: 18.75 mg/kg/injection, schedule: Q01DX001 (ip), vehicle: other) was 108 % of control and 109 % of control and the T/C (endpoint: mean survival time, dose: 18.75 mg/kg/injection, schedule: Q01DX001 (sc), vehicle: other) was 104 % of control. The T/C (endpoint: mean survival time, dose: 18.75 mg/kg/injection, schedule: Q04DX003 (ip), vehicle: other) was 118 % of control, the T/C (endpoint: mean survival time, dose: 20.0 mg/kg/injection, schedule: Q01DX009 (ip), vehicle: Klucel (hydroxypropylcellulose) (HPC)) was 119 % of control and the T/C (endpoint: mean survival time, dose: 25.0 mg/kg/injection, schedule: Q01DX001 (ip), vehicle: saline) was 104 % of control. For the same compound, the T/C (endpoint: mean survival time, dose: 25.0 mg/kg/injection, schedule: Q01DX009 (ip), vehicle: citric acid) was 93 % of control, the T/C (endpoint: mean survival time, dose: 25.0 mg/kg/injection, schedule: Q01DX009 (ip), vehicle: clinical formulation) was 101 % of control and the T/C (endpoint: mean survival time, dose: 37.5 mg/kg/injection, schedule: Q01DX001 (ip), vehicle: other) was 114 % of control and 120 % of control. For the same compound, the T/C (endpoint: mean survival time, dose: 37.5 mg/kg/injection, schedule: Q01DX001 (ip), vehicle: saline) was 104 % of control, the T/C (endpoint: mean survival time, dose: 37.5 mg/kg/injection, schedule: Q01DX001 (oral), vehicle: other) was 118 % of control and the T/C (endpoint: mean survival time, dose: 37.5 mg/kg/injection, schedule: Q01DX001 (sc), vehicle: other) was 113 % of control. For the same compound, the T/C (endpoint: mean survival time, dose: 37.5 mg/kg/injection, schedule: Q01DX001 (sc), vehicle: saline) was 104 % of control, the T/C (endpoint: mean survival time, dose: 37.5 mg/kg/injection, schedule: Q04DX003 (oral), vehicle: other) was 113 % of control and the T/C (endpoint: mean survival time, dose: 50.0 mg/kg/injection, schedule: Q01DX001 (ip), vehicle: other) was 105 % of control. For the same compound, the T/C (endpoint: mean survival time, dose: 50.0 mg/kg/injection, schedule: Q01DX001 (ip), vehicle: saline) was 98 % of control, the T/C (endpoint: mean survival time, dose: 50.0 mg/kg/injection, schedule: Q04DX003 (ip), vehicle: clinical formulation) was 123 % of control and the T/C (endpoint: mean survival time, dose: 75.0 mg/kg/injection, schedule: Q01DX001 (ip), vehicle: saline) was 111 % of control and 113 % of control and 115 % of control. The T/C (endpoint: mean survival time, dose: 75.0 mg/kg/injection, schedule: Q01DX001 (oral), vehicle: other) was 124 % of control, the T/C (endpoint: mean survival time, dose: 75.0 mg/kg/injection, schedule: Q01DX001 (oral), vehicle: saline) was 113 % of control and the T/C (endpoint: mean survival time, dose: 75.0 mg/kg/injection, schedule: Q01DX001 (sc), vehicle: other) was 112 % of control. The T/C (endpoint: mean survival time, dose: 75.0 mg/kg/injection, schedule: Q01DX001 (sc), vehicle: saline) was 100 % of control, the T/C (endpoint: mean survival time, dose: 100.0 mg/kg/injection, schedule: Q01DX Z (ip), vehicle: carboxymethylcellulose (CMC)) was 96 % of control and the T/C (endpoint: mean survival time, dose: 100.0 mg/kg/injection, schedule: Q01DX Z (ip), vehicle: saline) was 109 % of control. For the same compound, the T/C (endpoint: mean survival time, dose: 100.0 mg/kg/injection, schedule: Q04DX003 (ip), vehicle: citric acid) was 110 % of control, the T/C (endpoint: mean survival time, dose: 100.0 mg/kg/injection, schedule: Q04DX003 (ip), vehicle: clinical formulation) was 93 % of control and 103 % of control and the T/C (endpoint: mean survival time, dose: 115.0 mg/kg/injection, schedule: Q01DX001 (ip), vehicle: saline) was 113 % of control. The T/C (endpoint: mean survival time, dose: 115.0 mg/kg/injection, schedule: Q01DX Z (oral), vehicle: saline) was 95 % of control, the T/C (endpoint: mean survival time, dose: 150.0 mg/kg/injection, schedule: Q01DX001 (ip), vehicle: saline) was 118 % of control and the T/C (endpoint: mean survival time, dose: 150.0 mg/kg/injection, schedule: Q01DX001 (sc), vehicle: other) was 120 % of control. For the same compound, the T/C (endpoint: mean survival time, dose: 150.0 mg/kg/injection, schedule: Q01DX001 (sc), vehicle: saline) was 107 % of control, the T/C (endpoint: mean survival time, dose: 170.0 mg/kg/injection, schedule: Q01DX001 (ip), vehicle: saline) was 108 % of control and the T/C (endpoint: mean survival time, dose: 170.0 mg/kg/injection, schedule: Q01DX Z (ip), vehicle: saline) was 104 % of control. For the same compound, the T/C (endpoint: mean survival time, dose: 225.0 mg/kg/injection, schedule: Q01DX001 (ip), vehicle: saline) was 115 % of control, the T/C (endpoint: mean survival time, dose: 255.0 mg/kg/injection, schedule: Q01DX Z (ip), vehicle: saline) was 96 % of control and the T/C (endpoint: mean survival time, dose: 255.0 mg/kg/injection, schedule: Q01DX Z (oral), vehicle: saline) was 106 % of control. The T/C (endpoint: mean survival time, dose: 300.0 mg/kg/injection, schedule: Q01DX001 (ip), vehicle: saline) was 122 % of control, the T/C (endpoint: mean survival time, dose: 300.0 mg/kg/injection, schedule: Q01DX001 (sc), vehicle: saline) was 103 % of control and the T/C (endpoint: mean survival time, dose: 600.0 mg/kg/injection, schedule: Q01DX001 (oral), vehicle: other) was 92 % of control. For the same compound, the T/C (endpoint: mean survival time, dose: 600.0 mg/kg/injection, schedule: Q01DX001 (sc), vehicle: saline) was 111 % of control, the T/C (endpoint: mean survival time, dose: 1200.0 mg/kg/injection, schedule: Q01DX001 (oral), vehicle: saline) was 104 % of control and the T/C (endpoint: median survival time, dose: 2.0 mg/kg/injection, schedule: Q03HX008 (oral), vehicle: other) was 100 % of control. For the same compound, the T/C (endpoint: median survival time, dose: 2.0 mg/kg/injection, schedule: Q03HX008 (sc), vehicle: water) was 100 % of control, the T/C (endpoint: median survival time, dose: 4.0 mg/kg/injection, schedule: Q01DX009 (ip), vehicle: other) was 116 % of control and the T/C (endpoint: median survival time, dose: 4.0 mg/kg/injection, schedule: Q01DX009 (oral), vehicle: other) was 111 % of control. The T/C (endpoint: median survival time, dose: 4.0 mg/kg/injection, schedule: Q01DX009 (sc), vehicle: water) was 100 % of control, the T/C (endpoint: median survival time, dose: 4.0 mg/kg/injection, schedule: Q03HX008 (oral), vehicle: other) was 111 % of control and the T/C (endpoint: median survival time, dose: 4.0 mg/kg/injection, schedule: Q03HX008 (sc), vehicle: water) was 111 % of control. The T/C (endpoint: median survival time, dose: 8.0 mg/kg/injection, schedule: Q01DX009 (oral), vehicle: other) was 111 % of control, the T/C (endpoint: median survival time, dose: 8.0 mg/kg/injection, schedule: Q01DX009 (sc), vehicle: water) was 116 % of control and the T/C (endpoint: median survival time, dose: 8.0 mg/kg/injection, schedule: Q03HX008 (oral), vehicle: other) was 94 % of control. For the same compound, the T/C (endpoint: median survival time, dose: 8.0 mg/kg/injection, schedule: Q03HX008 (sc), vehicle: water) was 122 % of control, the T/C (endpoint: median survival time, dose: 16.0 mg/kg/injection, schedule: Q01DX001 (oral), vehicle: other) was 100 % of control and the T/C (endpoint: median survival time, dose: 16.0 mg/kg/injection, schedule: Q01DX001 (sc), vehicle: water) was 111 % of control. The T/C (endpoint: median survival time, dose: 16.0 mg/kg/injection, schedule: Q01DX009 (ip), vehicle: water) was 111 % of control, the T/C (endpoint: median survival time, dose: 16.0 mg/kg/injection, schedule: Q01DX009 (oral), vehicle: other) was 122 % of control and the T/C (endpoint: median survival time, dose: 16.0 mg/kg/injection, schedule: Q03HX008 (oral), vehicle: other) was 116 % of control. The T/C (endpoint: median survival time, dose: 32.0 mg/kg/injection, schedule: Q01DX001 (oral), vehicle: other) was 111 % of control, the T/C (endpoint: median survival time, dose: 32.0 mg/kg/injection, schedule: Q01DX009 (ip), vehicle: other) was 100 % of control and the T/C (endpoint: median survival time, dose: 32.0 mg/kg/injection, schedule: Q01DX009 (ip), vehicle: water) was 100 % of control. The T/C (endpoint: median survival time, dose: 32.0 mg/kg/injection, schedule: Q01DX009 (oral), vehicle: other) was 105 % of control, the T/C (endpoint: median survival time, dose: 32.0 mg/kg/injection, schedule: Q03HX008 (sc), vehicle: water) was 150 % of control and the T/C (endpoint: median survival time, dose: 64.0 mg/kg/injection, schedule: Q01DX001 (oral), vehicle: other) was 111 % of control. The T/C (endpoint: median survival time, dose: 64.0 mg/kg/injection, schedule: Q01DX001 (sc), vehicle: water) was 111 % of control, the T/C (endpoint: median survival time, dose: 64.0 mg/kg/injection, schedule: Q01DX009 (sc), vehicle: water) was 116 % of control and the T/C (endpoint: median survival time, dose: 128.0 mg/kg/injection, schedule: Q01DX001 (oral), vehicle: other) was 122 % of control. The T/C (endpoint: median survival time, dose: 128.0 mg/kg/injection, schedule: Q01DX009 (oral), vehicle: other) was 111 % of control and the T/C (endpoint: median survival time, dose: 256.0 mg/kg/injection, schedule: Q01DX001 (sc), vehicle: water) was 122 % of control.
